Reference: article PMC12669040, “Tumour-specific STING agonist synthesis via a two-component prodrug system” (Nature Chemistry, 2025)
Where “and” joins values, the source holds several entries; their conditions need not be identical. Identical values can stand only once.

Legend:
[1] = Colorimetric alkylation rate constant assay with TNB^2− as non-specific thiol; type: physicochemical; set-up: second-order: unit not given here; details: for remaining [B]: in µM
[2] = Colorimetric alkylation rate constant assay with thiol N1; type: physicochemical; details: for remaining [A]: N1 from calibration curve (N1 in uM); for remaining [A] / remaining [B]: in µM
[3] = Time 2891 sec, [B]0 = 250, Replicates 1-3
[4] = Time 3071 sec, [B]0 = 250, Replicates 1-3
[5] = Time 3252 sec, [B]0 = 250, Replicates 1-3
[6] = Time 3433 sec, [B]0 = 250, Replicates 1-3
[7] = Time 3613 sec, [B]0 = 250, Replicates 1-3

SMILES: C=CS(=O)(=O)Nc1cc2cc(C(=O)CCC(=O)O)sc2cc1OC [Compound E1]
- remaining [B] ([1]; Replicate 1, 723 sec, [B]0 = 250): 246.895
- remaining [B] ([1]; Replicate 1, 903 sec, [B]0 = 250): 246.517
- remaining [B] ([1]; Replicate 1, 1084 sec, [B]0 = 250): 246.063
- remaining [B] ([1]; Replicate 1, 1265 sec, [B]0 = 250): 245.71
- remaining [B] ([1]; Replicate 1, 1445 sec, [B]0 = 250): 245.231
- remaining [B] ([1]; Replicate 1, 1626 sec, [B]0 = 250): 244.866
- remaining [B] ([1]; Replicate 1, 1806 sec, [B]0 = 250): 244.513
- remaining [B] ([1]; Replicate 1, 1988 sec, [B]0 = 250): 243.833
- remaining [B] ([1]; Replicate 1, 2168 sec, [B]0 = 250): 243.543
- remaining [B] ([1]; Replicate 1, 2349 sec, [B]0 = 250): 242.9
- remaining [B] ([1]; Replicate 1, 2530 sec, [B]0 = 250): 242.61
- remaining [B] ([1]; Replicate 1, 2710 sec, [B]0 = 250): 242.169
- remaining [B] ([1]; Replicate 2, 542 sec, [B]0=250): 248.022
- remaining [B] ([1]; Replicate 2, 723 sec, [B]0=250): 247.165
- remaining [B] ([1]; Replicate 2, 903 sec, [B]0=250): 246.925
- remaining [B] ([1]; Replicate 2, 1084 sec, [B]0=250): 246.522
- remaining [B] ([1]; Replicate 2, 1265 sec, [B]0=250): 246.258
- remaining [B] ([1]; Replicate 2, 1445 sec, [B]0=250): 245.88
- remaining [B] ([1]; Replicate 2, 1626 sec, [B]0=250): 245.262
- remaining [B] ([1]; Replicate 2, 1806 sec, [B]0=250): 245.073
- remaining [B] ([1]; Replicate 2, 1988 sec, [B]0=250): 244.304
- remaining [B] ([1]; Replicate 2, 2168 sec, [B]0=250): 244.191
- remaining [B] ([1]; Replicate 2, 2349 sec, [B]0=250): 243.649
- remaining [B] ([1]; Replicate 2, 2530 sec, [B]0=250): 243.511
- remaining [B] ([1]; Replicate 2, 2710 sec, [B]0=250): 243.032
- remaining [B] ([1]; Replicate 3, 723 sec, [B]0=250): 248.495
- remaining [B] ([1]; Replicate 3, 903 sec, [B]0=250): 247.89
- remaining [B] ([1]; Replicate 3, 1084 sec, [B]0=250): 247.373
- remaining [B] ([1]; Replicate 3, 1265 sec, [B]0=250): 246.731
- remaining [B] ([1]; Replicate 3, 1445 sec, [B]0=250): 246.365
- remaining [B] ([1]; Replicate 3, 1626 sec, [B]0=250): 245.899
- remaining [B] ([1]; Replicate 3, 1806 sec, [B]0=250): 245.521
- remaining [B] ([1]; Replicate 3, 1988 sec, [B]0=250): 245.08
- remaining [B] ([1]; Replicate 3, 2168 sec, [B]0=250): 244.563
- remaining [B] ([1]; Replicate 3, 2349 sec, [B]0=250): 244.16
- remaining [B] ([1]; Replicate 3, 2530 sec, [B]0=250): 243.744
- remaining [B] ([1]; Replicate 3, 2710 sec, [B]0=250): 243.505
- second-order [1, 3]: 0.0003098 and 0.0002905 and 0.000349
- remaining [B] [1, 3]: 243.089 and 241.779 and 242.654
- second-order [1, 4]: 0.0003222 and 0.0003146 and 0.0003655
- remaining [B] [1, 4]: 242.547 and 241.413 and 242.377
- second-order [1, 5]: 0.0003374 and 0.0003303 and 0.0003793
- remaining [B] [1, 5]: 242.194 and 241.111 and 242.036
- second-order [1, 6]: 0.0003624 and 0.0003513 and 0.0004046
- remaining [B] [1, 6]: 241.728 and 240.556 and 241.482
- second-order [1, 7]: 0.0003733 and 0.000365 and 0.0004313
- remaining [B] [1, 7]: 241.426
- second-order ([1]; Time 3794 sec, [B]0 = 250, Replicates 1-3): 0.0003951 and 0.0003787 and 0.000436
- second-order ([1]; Time 3974 sec, [B]0 = 250, Replicates 1-3): 0.0004043 and 0.0004098 and 0.0004713
- second-order ([1]; Time 4155 sec, [B]0 = 250, Replicates 1-3): 0.0004287 and 0.0004139 and 0.0004754
- second-order ([1]; Time 4336 sec, [B]0 = 250, Replicates 1-3): 0.0004451 and 0.0004267 and 0.000504
- second-order ([1]; Time 4516 sec, [B]0 = 250, Replicates 1-3): 0.0004586 and 0.0004477 and 0.0005214
- second-order ([1]; Time 4697 sec, [B]0 = 250, Replicates 1-3): 0.000471 and 0.0004671 and 0.0005431
- second-order ([1]; Time 4878 sec, [B]0 = 250, Replicates 1-3): 0.000487 and 0.0004831 and 0.0005503
- second-order ([1]; Time 5058 sec, [B]0 = 250, Replicates 1-3): 0.0005055 and 0.0005004 and 0.0005698
- second-order ([1]; Time 5239 sec, [B]0 = 250, Replicates 1-3): 0.0005247 and 0.0005046 and 0.0005919
- second-order ([1]; Time 5419 sec, [B]0 = 250, Replicates 1-3): 0.000547 and 0.000531 and 0.0006054
- second-order ([1]; Time 5600 sec, [B]0 = 250, Replicates 1-3): 0.0005568 and 0.0005491 and 0.0006296
- second-order ([1]; Time 5781 sec, [B]0 = 250, Replicates 1-3): 0.0005744 and 0.0005674 and 0.0006477
- second-order ([1]; Time 5961 sec, [B]0 = 250, Replicates 1-3): 0.0005953 and 0.0005931 and 0.0006685
- remaining [A] ([2]; Replicate 1, time 576 sec): 47.8044
- remaining [B] ([2]; Replicate 1, time 576 sec, [B]0 = 250): 193.684
- second-order ([2]; Replicate 1, time 576 sec, second-order plot value): 0.003586
- remaining [A] ([2]; Replicate 1, time 606 sec): 46.4649
- remaining [B] ([2]; Replicate 1, time 606 sec, [B]0 = 250): 192.345
- second-order ([2]; Replicate 1, time 606 sec, second-order plot value): 0.003734
- remaining [A] ([2]; Replicate 2, time 576 sec): 30.5226
- remaining [B] ([2]; Replicate 2, time 576 sec, [B]0=250): 177.381
- second-order ([2]; Replicate 2, time 576 sec, second-order plot value): 0.005955
- remaining [A] ([2]; Replicate 2, time 606 sec): 29.3038
- remaining [B] ([2]; Replicate 2, time 606 sec, [B]0=250): 176.162
- second-order ([2]; Replicate 2, time 606 sec, second-order plot value): 0.006185
- remaining [A] ([2]; Replicate 3, time 576 sec): 37.5866
- remaining [B] ([2]; Replicate 3, time 576 sec, [B]0=250): 183.039
- second-order ([2]; Replicate 3, time 576 sec, second-order plot value): 0.00489
- remaining [A] ([2]; Replicate 3, time 606 sec): 36.1527
- remaining [B] ([2]; Replicate 3, time 606 sec, [B]0=250): 181.605
- second-order ([2]; Replicate 3, time 606 sec, second-order plot value): 0.005103
- remaining [B] ([2]; time 0 sec, [B]0 = 250, replicates 1-3): 244.616 and 236.007 and 232.398
- second-order ([2]; time 0 sec, replicates 1-3): 0.000777 and 0.0002138 and 0.0005945
- remaining [B] ([2]; time 30 sec, [B]0 = 250, replicates 1-3): 239.016 and 232.843 and 226.134
- second-order ([2]; time 30 sec, replicates 1-3): 0.001109 and 0.0004543 and 0.0007469
- remaining [B] ([2]; time 60 sec, [B]0 = 250, replicates 1-3): 231.981 and 229.623 and 220.975
- second-order ([2]; time 60 sec, replicates 1-3): 0.00141 and 0.0007862 and 0.0009101
- remaining [B] ([2]; time 91 sec, [B]0 = 250, replicates 1-3): 228.545 and 226.744 and 217.517
- second-order ([2]; time 91 sec, replicates 1-3): 0.001628 and 0.0009622 and 0.001063
- remaining [B] ([2]; time 121 sec, [B]0 = 250, replicates 1-3): 224.298 and 223.153 and 210.771
- second-order ([2]; time 121 sec, replicates 1-3): 0.002097 and 0.001194 and 0.001265
- remaining [B] ([2]; time 151 sec, [B]0 = 250, replicates 1-3): 215.18 and 221.016 and 204.96
- second-order ([2]; time 151 sec, replicates 1-3): 0.002555 and 0.001754 and 0.001392
- remaining [B] ([2]; time 182 sec, [B]0 = 250, replicates 1-3): 211.366 and 218.251 and 202.608
- second-order ([2]; time 182 sec, replicates 1-3): 0.002758 and 0.002017 and 0.001562
- remaining [B] ([2]; time 212 sec, [B]0 = 250, replicates 1-3): 208.552 and 215.829 and 199.773
- second-order ([2]; time 212 sec, replicates 1-3): 0.003017 and 0.002225 and 0.001719
- remaining [B] ([2]; time 242 sec, [B]0 = 250, replicates 1-3): 206.279 and 213.378 and 197.222
- second-order ([2]; time 242 sec, replicates 1-3): 0.003266 and 0.002402 and 0.001885
- remaining [B] ([2]; time 273 sec, [B]0 = 250, replicates 1-3): 203.276 and 211.041 and 194.671
- second-order ([2]; time 273 sec, replicates 1-3): 0.003532 and 0.002649 and 0.002052
- remaining [B] ([2]; time 303 sec, [B]0 = 250, replicates 1-3): 200.625 and 209.074 and 192.148
- second-order ([2]; time 303 sec, replicates 1-3): 0.003812 and 0.002882 and 0.002197
- remaining [B] ([2]; time 333 sec, [B]0 = 250, replicates 1-3): 197.649 and 207.193 and 190.108
- second-order ([2]; time 333 sec, replicates 1-3): 0.004053 and 0.00316 and 0.002343
- remaining [B] ([2]; time 364 sec, [B]0 = 250, replicates 1-3): 195.376 and 205.141 and 187.925
- second-order ([2]; time 364 sec, replicates 1-3): 0.004327 and 0.003387 and 0.002508
- remaining [B] ([2]; time 394 sec, [B]0 = 250, replicates 1-3): 193.158 and 203.203 and 186.139
- second-order ([2]; time 394 sec, replicates 1-3): 0.004565 and 0.003621 and 0.002671
- remaining [B] ([2]; time 424 sec, [B]0 = 250, replicates 1-3): 190.588 and 201.351 and 184.155
- second-order ([2]; time 424 sec, replicates 1-3): 0.004845 and 0.003909 and 0.002833
- remaining [B] ([2]; time 454 sec, [B]0 = 250, replicates 1-3): 188.694 and 199.783 and 182.426
- second-order ([2]; time 454 sec, replicates 1-3): 0.005104 and 0.004135 and 0.002976
- remaining [B] ([2]; time 485 sec, [B]0 = 250, replicates 1-3): 186.908 and 198.016 and 181.378
- second-order ([2]; time 485 sec, replicates 1-3): 0.005268 and 0.00436 and 0.003143
- remaining [B] ([2]; time 515 sec, [B]0 = 250, replicates 1-3): 185.014 and 196.591 and 179.79
- second-order ([2]; time 515 sec, replicates 1-3): 0.005529 and 0.004611 and 0.003284
- remaining [B] ([2]; time 545 sec, [B]0 = 250, replicates 1-3): 184.094 and 195.166 and 178.713
- second-order ([2]; time 545 sec, replicates 1-3): 0.005715 and 0.004739 and 0.003429
